Test results published in ChEMBL document CHEMBL1152842, “Synthesis, Raman, FT-IR, NMR spectroscopic data and antimicrobial activity of mixed aza-oxo-thia macrocyclic compounds” (2009).
Converted amounts (≈) assume the structure as drawn. Each block holds one molecule with its values, some of them ahead of it.

Legend:
Format in all cases: functional
Bacillus cereus [1] = test: Antibacterial activity against Bacillus cereus ATCC 7064 after 24 hrs by disk diffusion method
Proteus vulgaris [2] = test: Antibacterial activity against Proteus vulgaris ATCC 8427 after 24 hrs by twofold serial dilution method; details: ATCC 8427, 24 h
[3] = system: Hanseniaspora guilliermondii; test: Antifungal activity against Hanseniaspora guilliermondii DSM 3432 after 48 hrs by twofold serial dilution method; details: DSM 3432, 48 h
[4] = system: Mycolicibacterium smegmatis; test: Antibacterial activity against Mycobacterium smegmatis CCM 2067 after 24 hrs by twofold serial dilution method; details: CCM 2067, 24 h
Debaryomyces hansenii [5] = test: Antifungal activity against Debaryomyces hansenii DSM 70238 after 48 hrs by twofold serial dilution method; details: DSM 70238, 48 h
Staphylococcus aureus [6] = test: Antibacterial activity against Staphylococcus aureus ATCC 6538 after 24 hrs by twofold serial dilution method; details: ATCC 6538, 24 h
Micrococcus luteus [7] = test: Antibacterial activity against Micrococcus luteus La 2971 after 24 hrs by twofold serial dilution method
Pseudomonas aeruginosa [8] = test: Antibacterial activity against Pseudomonas aeruginosa ATCC 27853 after 24 hrs by twofold serial dilution method; details: ATCC 27853, 24 h
Listeria monocytogenes [9] = test: Antibacterial activity against Listeria monocytogenes ATCC 15313 after 24 hrs by twofold serial dilution method; details: ATCC 15313, 24 h
Micrococcus luteus [10] = test: Antibacterial activity against Micrococcus luteus La 2971 after 24 hrs by disk diffusion method
Staphylococcus aureus [11] = test: Antibacterial activity against Staphylococcus aureus ATCC 6538 after 24 hrs by disk diffusion method
Kluyveromyces marxianus [12] = test: Antifungal activity against Kluyveromyces fragilis NRRL 2415 after 72 hrs by disk diffusion method
Pseudomonas aeruginosa [13] = test: Antibacterial activity against Pseudomonas aeruginosa ATCC 27853 after 24 hrs by disk diffusion method
Candida albicans [14] = test: Antifungal activity against Candida albicans ATCC 10231 after 48 hrs by twofold serial dilution method; details: ATCC 10231, 48 h
Kluyveromyces marxianus [15] = test: Antifungal activity against Kluyveromyces fragilis NRRL 2415 after 48 hrs by twofold serial dilution method; details: NRRL 2415, 48 h
Escherichia coli [16] = test: Antibacterial activity against Escherichia coli ATCC 11230 after 24 hrs by twofold serial dilution method; details: ATCC 11230, 24 h
Candida albicans [17] = test: Antifungal activity against Candida albicans ATCC 10231 after 72 hrs by disk diffusion method
Rhodotorula mucilaginosa [18] = test: Antifungal activity against Rhodotorula rubra DSM 70403 after 72 hrs by disk diffusion method
Rhodotorula mucilaginosa [19] = test: Antifungal activity against Rhodotorula rubra DSM 70403 after 48 hrs by twofold serial dilution method; details: DSM 70403, 48 h
Debaryomyces hansenii [20] = test: Antifungal activity against Debaryomyces hansenii DSM 70238 after 72 hrs by disk diffusion method
Escherichia coli [21] = test: Antibacterial activity against Escherichia coli ATCC 11230 after 24 hrs by disk diffusion method
Klebsiella pneumoniae [22] = test: Antibacterial activity against Klebsiella pneumoniae UC57 after 24 hrs by twofold serial dilution method
Proteus vulgaris [23] = test: Antibacterial activity against Proteus vulgaris ATCC 8427 after 24 hrs by disk diffusion method
Bacillus cereus [24] = test: Antibacterial activity against Bacillus cereus ATCC 7064 after 24 hrs by twofold serial dilution method; details: ATCC 7064, 24 h
[25] = system: Mycolicibacterium smegmatis; test: Antibacterial activity against Mycobacterium smegmatis CCM 2067 after 24 hrs by disk diffusion method
[26] = system: Hanseniaspora guilliermondii; test: Antifungal activity against Hanseniaspora guilliermondii DSM 3432 after 72 hrs by disk diffusion method
Klebsiella pneumoniae [27] = test: Antibacterial activity against Klebsiella pneumoniae UC57 after 24 hrs by disk diffusion method
Listeria monocytogenes [28] = test: Antibacterial activity against Listeria monocytogenes ATCC 15313 after 24 hrs by disk diffusion method
Klebsiella pneumoniae [29] = test: Antibacterial activity against Klebsiella pneumoniae UC57 at 1 ug after 24 hrs by disk diffusion method; details: read-out: IZ
[30] = system: Mycolicibacterium smegmatis; test: Antibacterial activity against Mycobacterium smegmatis CCM 2067 at 1 ug after 24 hrs by disk diffusion method; details: CCM 2067, 24 h, read-out: IZ
Micrococcus luteus [31] = test: Antibacterial activity against Micrococcus luteus La 2971 at 1 ug after 24 hrs by disk diffusion method; details: read-out: IZ
Escherichia coli [32] = test: Antibacterial activity against Escherichia coli ATCC 11230 at 1 ug after 24 hrs by disk diffusion method; details: ATCC 11230, 24 h, read-out: IZ
Proteus vulgaris [33] = test: Antibacterial activity against Proteus vulgaris ATCC 8427 at 1 ug after 24 hrs by disk diffusion method; details: ATCC 8427, 24 h, read-out: IZ
Listeria monocytogenes [34] = test: Antibacterial activity against Listeria monocytogenes ATCC 15313 at 1 ug after 24 hrs by disk diffusion method; details: ATCC 15313, 24 h, read-out: IZ
Bacillus cereus [35] = test: Antibacterial activity against Bacillus cereus ATCC 7064 at 1 ug after 24 hrs by disk diffusion method; details: ATCC 7064, 24 h, read-out: IZ
Pseudomonas aeruginosa [36] = test: Antibacterial activity against Pseudomonas aeruginosa ATCC 27853 at 1 ug after 24 hrs by disk diffusion method; details: ATCC 27853, 24 h, read-out: IZ
Staphylococcus aureus [37] = test: Antibacterial activity against Staphylococcus aureus ATCC 6538 at 1 ug after 24 hrs by disk diffusion method; details: ATCC 6538, 24 h, read-out: IZ
Bacillus cereus [38] = test: Antibacterial activity against Bacillus cereus ATCC 7064 at 5 ug after 24 hrs by disk diffusion method; details: ATCC 7064, 24 h, read-out: IZ
Listeria monocytogenes [39] = test: Antibacterial activity against Listeria monocytogenes ATCC 15313 at 5 ug after 24 hrs by disk diffusion method; details: ATCC 15313, 24 h, read-out: IZ
[40] = system: Mycolicibacterium smegmatis; test: Antibacterial activity against Mycobacterium smegmatis CCM 2067 at 5 ug after 24 hrs by disk diffusion method; details: CCM 2067, 24 h, read-out: IZ
Proteus vulgaris [41] = test: Antibacterial activity against Proteus vulgaris ATCC 8427 at 5 ug after 24 hrs by disk diffusion method; details: ATCC 8427, 24 h, read-out: IZ
Micrococcus luteus [42] = test: Antibacterial activity against Micrococcus luteus La 2971 at 5 ug after 24 hrs by disk diffusion method; details: read-out: IZ
Pseudomonas aeruginosa [43] = test: Antibacterial activity against Pseudomonas aeruginosa ATCC 27853 at 5 ug after 24 hrs by disk diffusion method; details: ATCC 27853, 24 h, read-out: IZ
Klebsiella pneumoniae [44] = test: Antibacterial activity against Klebsiella pneumoniae UC57 at 5 ug after 24 hrs by disk diffusion method; details: read-out: IZ
Escherichia coli [45] = test: Antibacterial activity against Escherichia coli ATCC 11230 at 5 ug after 24 hrs by disk diffusion method; details: ATCC 11230, 24 h, read-out: IZ
Staphylococcus aureus [46] = test: Antibacterial activity against Staphylococcus aureus ATCC 6538 at 5 ug after 24 hrs by disk diffusion method; details: ATCC 6538, 24 h, read-out: IZ

MIC (Proteus vulgaris [2]): 25 µg/mL (≈ 56 µM) | MIC [3]: 3.12 µg/mL (≈ 7 µM) | MIC [4]: 25 µg/mL (≈ 56 µM) | MIC (Debaryomyces hansenii [5]): 3.12 µg/mL (≈ 7 µM) | MIC (Staphylococcus aureus [6]): 12.5 µg/mL (≈ 28 µM) | MIC (Micrococcus luteus [7]): 12.5 µg/mL (≈ 28 µM) | MIC (Pseudomonas aeruginosa [8]): 6.25 µg/mL (≈ 14 µM) | MIC (Listeria monocytogenes [9]): 12.5 µg/mL (≈ 28 µM) | MIC (Candida albicans [14]): 6.25 µg/mL (≈ 14 µM) | MIC (Kluyveromyces marxianus [15]): 3.12 µg/mL (≈ 7 µM) | MIC (Escherichia coli [16]): 25 µg/mL (≈ 56 µM) | MIC (Rhodotorula mucilaginosa [19]): 6.25 µg/mL (≈ 14 µM) | MIC (Klebsiella pneumoniae [22]): 6.25 µg/mL (≈ 14 µM) | MIC (Bacillus cereus [24]): 12.5 µg/mL (≈ 28 µM)
SMILES: O=C1CSCC(=O)Nc2cccc(n2)NC(=O)CSCC(=O)Nc2cccc(n2)N1
inhibition zone (IZ) (Bacillus cereus [1]): 12 mm | inhibition zone (IZ) (Micrococcus luteus [10]): 12 mm | inhibition zone (IZ) (Staphylococcus aureus [11]): 14 mm | inhibition zone (IZ) (Kluyveromyces marxianus [12]): 20 mm | inhibition zone (IZ) (Pseudomonas aeruginosa [13]): 16 mm | inhibition zone (IZ) (Candida albicans [17]): 17 mm | inhibition zone (IZ) (Rhodotorula mucilaginosa [18]): 15 mm | inhibition zone (IZ) (Debaryomyces hansenii [20]): 18 mm | inhibition zone (IZ) (Escherichia coli [21]): 10 mm | inhibition zone (IZ) (Proteus vulgaris [23]): 11 mm | inhibition zone (IZ) [25]: 10 mm | inhibition zone (IZ) [26]: 20 mm | inhibition zone (IZ) (Klebsiella pneumoniae [27]): 15 mm | inhibition zone (IZ) (Listeria monocytogenes [28]): 12 mm

MIC (Proteus vulgaris [2]): 25 µg/mL (≈ 44.1 µM) | MIC [3]: 1.56 µg/mL (≈ 2.75 µM) | MIC [4]: 25 µg/mL (≈ 44.1 µM) | MIC (Debaryomyces hansenii [5]): 1.56 µg/mL (≈ 2.75 µM) | MIC (Staphylococcus aureus [6]): 6.25 µg/mL (≈ 11 µM) | MIC (Micrococcus luteus [7]): 12.5 µg/mL (≈ 22.1 µM) | MIC (Pseudomonas aeruginosa [8]): 6.25 µg/mL (≈ 11 µM) | MIC (Listeria monocytogenes [9]): 12.5 µg/mL (≈ 22.1 µM) | MIC (Candida albicans [14]): 1.56 µg/mL (≈ 2.75 µM) | MIC (Kluyveromyces marxianus [15]): 1.56 µg/mL (≈ 2.75 µM) | MIC (Escherichia coli [16]): 6.25 µg/mL (≈ 11 µM) | MIC (Rhodotorula mucilaginosa [19]): 1.56 µg/mL (≈ 2.75 µM) | MIC (Klebsiella pneumoniae [22]): 6.25 µg/mL (≈ 11 µM) | MIC (Bacillus cereus [24]): 12.5 µg/mL (≈ 22.1 µM)
SMILES: O=C1CCSSCCC(=O)Nc2cccc(n2)NC(=O)CCSSCCC(=O)Nc2cccc(n2)N1
inhibition zone (IZ) (Bacillus cereus [1]): 15 mm | inhibition zone (IZ) (Micrococcus luteus [10]): 15 mm | inhibition zone (IZ) (Staphylococcus aureus [11]): 15 mm | inhibition zone (IZ) (Kluyveromyces marxianus [12]): 22 mm | inhibition zone (IZ) (Pseudomonas aeruginosa [13]): 17 mm | inhibition zone (IZ) (Candida albicans [17]): 22 mm | inhibition zone (IZ) (Rhodotorula mucilaginosa [18]): 22 mm | inhibition zone (IZ) (Debaryomyces hansenii [20]): 22 mm | inhibition zone (IZ) (Escherichia coli [21]): 16 mm | inhibition zone (IZ) (Proteus vulgaris [23]): 11 mm | inhibition zone (IZ) [25]: 10 mm | inhibition zone (IZ) [26]: 22 mm | inhibition zone (IZ) (Klebsiella pneumoniae [27]): 17 mm | inhibition zone (IZ) (Listeria monocytogenes [28]): 15 mm

SMILES: CC1(C)S[C@@H]2[C@H](NC(=O)[C@H](N)c3ccccc3)C(=O)N2[C@H]1C(=O)O [AMPICILLIN]
zone of inhibition at 1 µg/disc (Klebsiella pneumoniae [29]): 14 mm | zone of inhibition at 1 µg/disc [30]: 21 mm | zone of inhibition at 1 µg/disc (Micrococcus luteus [31]): 10 mm | zone of inhibition at 1 µg/disc (Escherichia coli [32]): 12 mm | zone of inhibition at 1 µg/disc (Proteus vulgaris [33]): 32 mm | zone of inhibition at 1 µg/disc (Listeria monocytogenes [34]): 12 mm | zone of inhibition at 1 µg/disc (Bacillus cereus [35]): 16 mm | zone of inhibition at 1 µg/disc (Pseudomonas aeruginosa [36]): 12 mm | zone of inhibition at 1 µg/disc (Staphylococcus aureus [37]): 16 mm

SMILES: CO/N=C(\C(=O)N[C@@H]1C(=O)N2C(C(=O)O)=C(COC(C)=O)CS[C@H]12)c1csc(N)n1 [CEFOTAXIME]
zone of inhibition at 1 µg/disc (Klebsiella pneumoniae [29]): 13 mm | zone of inhibition at 1 µg/disc [30]: 11 mm | zone of inhibition at 1 µg/disc (Micrococcus luteus [31]): 54 mm | zone of inhibition at 1 µg/disc (Escherichia coli [32]): 10 mm | zone of inhibition at 1 µg/disc (Proteus vulgaris [33]): 32 mm | zone of inhibition at 1 µg/disc (Listeria monocytogenes [34]): 16 mm | zone of inhibition at 1 µg/disc (Bacillus cereus [35]): 18 mm | zone of inhibition at 1 µg/disc (Pseudomonas aeruginosa [36]): 14 mm | zone of inhibition at 1 µg/disc (Staphylococcus aureus [37]): 12 mm

SMILES: CC1COc2c(N3CCN(C)CC3)c(F)cc3c(=O)c(C(=O)O)cn1c23 (stereo not drawn) [OFLOXACIN]
zone of inhibition at 5 µg/disc (Bacillus cereus [38]): 28 mm | zone of inhibition at 5 µg/disc (Listeria monocytogenes [39]): 30 mm | zone of inhibition at 5 µg/disc [40]: 32 mm | zone of inhibition at 5 µg/disc (Proteus vulgaris [41]): 28 mm | zone of inhibition at 5 µg/disc (Micrococcus luteus [42]): 44 mm | zone of inhibition at 5 µg/disc (Pseudomonas aeruginosa [43]): 30 mm | zone of inhibition at 5 µg/disc (Klebsiella pneumoniae [44]): 28 mm | zone of inhibition at 5 µg/disc (Escherichia coli [45]): 30 mm | zone of inhibition at 5 µg/disc (Staphylococcus aureus [46]): 24 mm
